The results in this text go back to ChEMBL document CHEMBL3588774, “Tyrosyl-DNA Phosphodiesterase I Inhibitors from the Australian Plant Macropteranthes leichhardtii” (J Nat Prod, 2015).

Usually IC50 stands for the midpoint of a concentration-inhibition curve.

In experiment [1] the target is T1, Tyrosyl-DNA phosphodiesterase 1 (Homo sapiens, UniProt Q9NUW8). In words: Inhibition of Tdp1 (unknown origin) up to 40 uM incubated for 30 mins using 5'-/6-TAMN/AGGATCTAAAAGACTT/3BHQ_2/-3' substrate by microplate reader based assay.
T1 sequence (Q9NUW8 whole entry): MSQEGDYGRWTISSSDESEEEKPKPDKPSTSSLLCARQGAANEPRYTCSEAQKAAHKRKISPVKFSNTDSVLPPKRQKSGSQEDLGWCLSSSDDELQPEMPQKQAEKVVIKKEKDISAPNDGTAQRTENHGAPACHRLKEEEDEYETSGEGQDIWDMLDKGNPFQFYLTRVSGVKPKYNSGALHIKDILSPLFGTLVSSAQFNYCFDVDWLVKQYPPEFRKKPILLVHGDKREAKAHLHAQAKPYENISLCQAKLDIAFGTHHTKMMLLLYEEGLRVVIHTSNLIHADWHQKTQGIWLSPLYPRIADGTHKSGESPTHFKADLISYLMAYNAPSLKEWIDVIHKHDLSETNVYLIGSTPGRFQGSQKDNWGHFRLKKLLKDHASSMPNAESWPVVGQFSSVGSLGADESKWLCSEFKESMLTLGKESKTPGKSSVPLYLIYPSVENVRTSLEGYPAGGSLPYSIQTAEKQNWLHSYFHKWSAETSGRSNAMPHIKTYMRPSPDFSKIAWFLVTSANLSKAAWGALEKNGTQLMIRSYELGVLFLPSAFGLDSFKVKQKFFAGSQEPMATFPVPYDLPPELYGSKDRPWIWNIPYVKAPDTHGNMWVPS
Experiment [2] addresses T1, Tyrosyl-DNA phosphodiesterase 1. In words: Inhibition of Tdp1 (unknown origin) incubated for 30 mins using 5'-/6-TAMN/AGGATCTAAAAGACTT/3BHQ_2/-3' substrate by microplate reader based assay.

Activity calls are given as the source filed them. No cut-off for these calls is given here.

For the compound `COc1cc(O[C@@H]2O[C@H](COC(=O)c3cc(O)c(O)c(O)c3)[C@@H](O)[C@H](O)[C@H]2O)cc(OC)c1OC`, the inhibition entry in experiment [1] was “inactive”. For the compound `COc1cc([C@@H]2O[C@H]3[C@H](O[C@H]2COC(=O)c2cc(O)c(O)c(O)c2)O[C@H](CO)[C@@H](O)[C@@H]3O)ccc1O`, the inhibition entry in experiment [1] is “inactive”. As to `COc1cc([C@@H]2O[C@H]3[C@H](O[C@H]2CO)O[C@H](COC(=O)c2cc(O)c(O)c(O)c2)[C@@H](O)[C@@H]3O)ccc1O`, the inhibition entry in experiment [1] is “inactive”. Turning to `COc1cc(C[C@@H](CO)O[C@@H]2O[C@H](COC(=O)c3cc(O)c(O)c(O)c3)[C@@H](O)[C@H](O)[C@H]2O)ccc1O`, the IC50 in experiment [2] turned out to be 1000 nM. Turning to `COc1ccc(O[C@@H]2O[C@H](COC(=O)c3cc(O)c(O)c(O)c3)[C@@H](O)[C@H](O)[C@H]2O)cc1OC`, the IC50 in experiment [2] worked out at 1000 nM.
